Species: Rattus norvegicus
Test: DrugMatrix - Regimen: Daily Repeat
Format: toxicity, organism-based, Sprague-Dawley
Parameters: regimen Daily Repeat, gender Male, age 6-8 weeks
Conditions: in vivo, po, route oral GAVAGE, […]; for ABSOLUTE BASOPHIL / ABSOLUTE EOSINOPHIL / ABSOLUTE LYMPHOCYTE / ABSOLUTE MONOCYTE / ABSOLUTE SEGMENTED NEUTROPHIL / BASOPHIL / EOSINOPHIL / ERYTHROCYTE COUNT / HEMATOCRIT / HEMOGLOBIN / LEUKOCYTE COUNT / LYMPHOCYTE / MEAN CORPUSCULAR HEMOGLOBIN / MEAN CORPUSCULAR HEMOGLOBIN CONCENTRATION / MEAN CORPUSCULAR VOLUME / MONOCYTE / NEUTROPHIL / NUCLEATED RED BLOOD CELLS / PLATELET COUNT: tissue Blood; for ALANINE AMINOTRANSFERASE / ALBUMIN / ALKALINE PHOSPHATASE / ASPARTATE AMINOTRANSFERASE / BLOOD UREA NITROGEN / CARBON DIOXIDE / CHLORIDE / CHOLESTEROL / CREATINE PHOSPHOKINASE / CREATININE / GLUCOSE / LACTATE DEHYDROGENASE / LIPASE / PHOSPHORUS / POTASSIUM / SODIUM / TOTAL BILIRUBIN / TOTAL PROTEIN / URIC ACID: tissue Plasma
[1] = 0 mg/kg, 72 h, dose level Control, time 3 day
[2] = 0 mg/kg, 120 h, dose level Control, time 5 day
[3] = 30 mg/kg, 72 h, dose level Low, time 3 day

CCCCC(=O)N(Cc1ccc(-c2ccccc2-c2nnn[nH]2)cc1)[C@H](C(=O)O)C(C)C
ABSOLUTE BASOPHIL [1]: 0 CELLS/uL | ABSOLUTE EOSINOPHIL [1]: 13.67 CELLS/uL | ABSOLUTE LYMPHOCYTE [1]: 10069.5 CELLS/uL | ABSOLUTE MONOCYTE [1]: 50 CELLS/uL | ABSOLUTE SEGMENTED NEUTROPHIL [1]: 516.83 CELLS/uL | BASOPHIL [1]: 0% | EOSINOPHIL [1]: 0.17% | ERYTHROCYTE COUNT [1]: 5.44 x10E6/uL | HEMATOCRIT [1]: 33.88% | HEMOGLOBIN [1]: 13.23 G/DL | LEUKOCYTE COUNT [1]: 10.65 x10E3/uL | LYMPHOCYTE [1]: 94.67% | MEAN CORPUSCULAR HEMOGLOBIN [1]: 24.37 pg | MEAN CORPUSCULAR HEMOGLOBIN CONCENTRATION [1]: 39.05 G/DL | MEAN CORPUSCULAR VOLUME [1]: 62.38 fL | MONOCYTE [1]: 0.67% | NEUTROPHIL [1]: 4.5% | NUCLEATED RED BLOOD CELLS [1]: 0.33 /100WBC | PLATELET COUNT [1]: 414.5 x10E3/uL | ALANINE AMINOTRANSFERASE [1]: 72 u/L | ALBUMIN [1]: 3.75 G/DL | ALKALINE PHOSPHATASE [1]: 375 u/L | ASPARTATE AMINOTRANSFERASE [1]: 87.5 u/L | BLOOD UREA NITROGEN [1]: 14 mg/dL | CARBON DIOXIDE [1]: 27.5 mmol/L | CHLORIDE [1]: 95.83 MEQ/L | CHOLESTEROL [1]: 68.5 mg/dL | CREATINE PHOSPHOKINASE [1]: 284.33 u/L | CREATININE [1]: 0.16 mg/dL | GLUCOSE [1]: 156.67 mg/dL | LACTATE DEHYDROGENASE [1]: 101.83 u/L | LIPASE [1]: 9.67 u/L | PHOSPHORUS [1]: 10.33 mg/dL | POTASSIUM [1]: 5.22 MEQ/L | SODIUM [1]: 137.67 MEQ/L | TOTAL BILIRUBIN [1]: 0.13 mg/dL | TOTAL PROTEIN [1]: 5.43 G/DL | URIC ACID [1]: 0.8 mg/dL | ABSOLUTE BASOPHIL [2]: 0 CELLS/uL | ABSOLUTE EOSINOPHIL [2]: 20.67 CELLS/uL | ABSOLUTE LYMPHOCYTE [2]: 11518.33 CELLS/uL | ABSOLUTE MONOCYTE [2]: 47 CELLS/uL | ABSOLUTE SEGMENTED NEUTROPHIL [2]: 614 CELLS/uL | BASOPHIL [2]: 0% | EOSINOPHIL [2]: 0.17% | ERYTHROCYTE COUNT [2]: 5.61 x10E6/uL | HEMATOCRIT [2]: 34.25% | HEMOGLOBIN [2]: 13.38 G/DL | LEUKOCYTE COUNT [2]: 12.2 x10E3/uL | LYMPHOCYTE [2]: 94.33% | MEAN CORPUSCULAR HEMOGLOBIN [2]: 23.83 pg | MEAN CORPUSCULAR HEMOGLOBIN CONCENTRATION [2]: 39.08 G/DL | MEAN CORPUSCULAR VOLUME [2]: 61.03 fL | MONOCYTE [2]: 0.33% | NEUTROPHIL [2]: 5.17% | NUCLEATED RED BLOOD CELLS [2]: 0 /100WBC | PLATELET COUNT [2]: 941.83 x10E3/uL | ALANINE AMINOTRANSFERASE [2]: 68.83 u/L | ALBUMIN [2]: 4.12 G/DL | ALKALINE PHOSPHATASE [2]: 492.67 u/L | ASPARTATE AMINOTRANSFERASE [2]: 83.33 u/L | BLOOD UREA NITROGEN [2]: 14 mg/dL | CARBON DIOXIDE [2]: 37 mmol/L | CHLORIDE [2]: 98.67 MEQ/L | CHOLESTEROL [2]: 56.5 mg/dL | CREATINE PHOSPHOKINASE [2]: 167.33 u/L | CREATININE [2]: 0.17 mg/dL | GLUCOSE [2]: 157.5 mg/dL | LACTATE DEHYDROGENASE [2]: 104.83 u/L | LIPASE [2]: 10 u/L | PHOSPHORUS [2]: 10.43 mg/dL | POTASSIUM [2]: 5.46 MEQ/L | SODIUM [2]: 143.87 MEQ/L | TOTAL BILIRUBIN [2]: 0.17 mg/dL | TOTAL PROTEIN [2]: 5.72 G/DL | URIC ACID [2]: 0.85 mg/dL | ABSOLUTE BASOPHIL [3]: 0 CELLS/uL | ABSOLUTE EOSINOPHIL [3]: 32 CELLS/uL | ABSOLUTE LYMPHOCYTE [3]: 7448.67 CELLS/uL | ABSOLUTE MONOCYTE [3]: 0 CELLS/uL | ABSOLUTE SEGMENTED NEUTROPHIL [3]: 586 CELLS/uL | BASOPHIL [3]: 0% | EOSINOPHIL [3]: 0.33% | ERYTHROCYTE COUNT [3]: 5.55 x10E6/uL | HEMATOCRIT [3]: 33.7% | HEMOGLOBIN [3]: 13.27 G/DL | LEUKOCYTE COUNT [3]: 8.07 x10E3/uL | LYMPHOCYTE [3]: 92.33% | MEAN CORPUSCULAR HEMOGLOBIN [3]: 23.9 pg | MEAN CORPUSCULAR HEMOGLOBIN CONCENTRATION [3]: 39.33 G/DL | MEAN CORPUSCULAR VOLUME [3]: 60.7 fL | MONOCYTE [3]: 0% | NEUTROPHIL [3]: 7.33% | NUCLEATED RED BLOOD CELLS [3]: 0.67 /100WBC | PLATELET COUNT [3]: 891 x10E3/uL | ALANINE AMINOTRANSFERASE [3]: 67.67 u/L | ALBUMIN [3]: 3.93 G/DL | ALKALINE PHOSPHATASE [3]: 446.33 u/L | ASPARTATE AMINOTRANSFERASE [3]: 94.33 u/L | BLOOD UREA NITROGEN [3]: 14.33 mg/dL | CARBON DIOXIDE [3]: 25 mmol/L | CHLORIDE [3]: 95.5 MEQ/L | CHOLESTEROL [3]: 77.67 mg/dL | CREATINE PHOSPHOKINASE [3]: 130 u/L | CREATININE [3]: 0.19 mg/dL | GLUCOSE [3]: 147 mg/dL | LACTATE DEHYDROGENASE [3]: 98 u/L | LIPASE [3]: 11.33 u/L | PHOSPHORUS [3]: 9.5 mg/dL | POTASSIUM [3]: 5.71 MEQ/L | SODIUM [3]: 138.1 MEQ/L | TOTAL BILIRUBIN [3]: 0.1 mg/dL | TOTAL PROTEIN [3]: 5.53 G/DL | URIC ACID [3]: 0.57 mg/dL

Reference: ChEMBL document CHEMBL3885881, “DrugMatrix”
